According to ChEMBL document CHEMBL5223086, “Recent Progress and Clinical Development of Inhibitors that Block MDM4/p53 Protein-Protein Interactions” (J Med Chem, 2021):
pEC50, pIC50, pKd, pKi: −log10 of the molar value. Peptide text beside a SMILES is read from it.

Tests used:
[1] = target: T1, Tumour suppressor protein p53/Mdm4 (Homo sapiens, UniProt O15151+P04637); test: Inhibition of human MDM4/p53 interaction by TR-FRET assay; format: protein assay
[2] = target: T2, Protein Mdm4 (Homo sapiens, UniProt O15151); test: Binding affinity to human MDM4 assessed as inhibition constant
T2 sequence (O15151 whole entry): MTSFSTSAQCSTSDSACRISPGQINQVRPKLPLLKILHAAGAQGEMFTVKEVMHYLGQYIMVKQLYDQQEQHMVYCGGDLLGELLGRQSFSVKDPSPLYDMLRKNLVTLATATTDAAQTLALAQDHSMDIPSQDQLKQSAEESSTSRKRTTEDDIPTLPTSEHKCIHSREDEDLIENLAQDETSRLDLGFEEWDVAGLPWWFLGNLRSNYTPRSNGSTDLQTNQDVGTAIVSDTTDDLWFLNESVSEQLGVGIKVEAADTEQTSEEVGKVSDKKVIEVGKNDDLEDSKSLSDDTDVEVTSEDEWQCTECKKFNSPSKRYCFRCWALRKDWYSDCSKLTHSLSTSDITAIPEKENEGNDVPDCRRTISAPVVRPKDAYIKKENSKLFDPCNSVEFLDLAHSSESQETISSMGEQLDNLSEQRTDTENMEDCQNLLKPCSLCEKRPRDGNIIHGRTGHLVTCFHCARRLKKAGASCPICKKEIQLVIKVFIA

[3] = target: T3, E3 ubiquitin-protein ligase Mdm2 (Homo sapiens, UniProt Q00987); test: Inhibition of human MDM2 by TR-FRET assay
[4] = target: T1, Tumour suppressor protein p53/Mdm4; test: Inhibition of human MDM4/p53 interaction by FP assay; format: protein assay
[5] = target: T2, Protein Mdm4; test: Inhibition of human MDM4 by TR-FRET assay
[6] = target: T2, Protein Mdm4; test: Inhibition of human his-tagged MDM4 assessed as dissociation constant by ITC assay
[7] = system: MCF7; test: Anticancer activity against human MCF7 cells assessed as cell viability at 30 mg/kg by MTT assay relative to contol; settings: MCF7, read-out: TGI
[8] = target: T3, E3 ubiquitin-protein ligase Mdm2; test: Inhibition of human MDM2
[9] = target: T2, Protein Mdm4; test: Inhibition of human MDM4
[10] = target: T3, E3 ubiquitin-protein ligase Mdm2; test: Binding affinity to human MDM2 assessed as dissociation constant
[11] = target: T1, Tumour suppressor protein p53/Mdm4; test: Inhibition of human MDM4/p53 interaction by SPR analysis; format: protein assay
[12] = target: T2, Protein Mdm4; test: Inhibition of MDM4 assessed as dissociation constant
[13] = system: MCF7; test: Anticancer activity against […] relative to contol; format: functional; settings: read-out: TGI
[14] = target: T2, Protein Mdm4; test: Inhibition of human MDM4 by ELISA assay

T1 sequence (P04637 whole entry, one chain of several): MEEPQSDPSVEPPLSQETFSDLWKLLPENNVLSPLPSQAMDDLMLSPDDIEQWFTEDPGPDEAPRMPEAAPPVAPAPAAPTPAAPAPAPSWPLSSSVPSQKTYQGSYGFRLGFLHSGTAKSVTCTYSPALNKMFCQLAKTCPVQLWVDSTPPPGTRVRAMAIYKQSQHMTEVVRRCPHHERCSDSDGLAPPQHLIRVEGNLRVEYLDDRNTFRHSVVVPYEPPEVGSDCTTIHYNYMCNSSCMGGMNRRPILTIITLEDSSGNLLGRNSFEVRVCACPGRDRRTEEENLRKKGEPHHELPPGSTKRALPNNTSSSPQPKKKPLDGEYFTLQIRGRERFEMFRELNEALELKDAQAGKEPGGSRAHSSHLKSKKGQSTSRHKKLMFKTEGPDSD
T3 sequence (Q00987 whole entry): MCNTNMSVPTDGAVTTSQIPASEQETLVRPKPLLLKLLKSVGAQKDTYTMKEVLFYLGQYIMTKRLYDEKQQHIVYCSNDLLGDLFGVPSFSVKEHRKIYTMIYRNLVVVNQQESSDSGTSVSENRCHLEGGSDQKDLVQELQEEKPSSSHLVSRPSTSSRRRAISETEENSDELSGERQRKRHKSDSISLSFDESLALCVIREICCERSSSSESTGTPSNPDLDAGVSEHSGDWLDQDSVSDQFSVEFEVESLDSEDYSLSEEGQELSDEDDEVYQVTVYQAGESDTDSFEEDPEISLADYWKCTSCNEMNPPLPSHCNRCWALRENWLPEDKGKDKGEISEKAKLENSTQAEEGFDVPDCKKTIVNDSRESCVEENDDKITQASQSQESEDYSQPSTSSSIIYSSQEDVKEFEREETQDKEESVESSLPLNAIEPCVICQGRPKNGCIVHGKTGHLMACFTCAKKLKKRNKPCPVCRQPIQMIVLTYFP

COc1nc(N(C)C)ncc1-c1nc2c(n1C(C)C)[C@H](c1ccc(C#N)cc1)N(c1cc(Cl)cn(C)c1=O)C2=O
pIC50 [1]: 5.89

COc1ncc(-c2nc3c(n2C(C)C)C(c2ccc(Cl)cc2)N(c2cc(Cl)cn(C)c2=O)C3=O)c(OC)n1 (stereo unspecified)
pIC50 [2]: 5.52

COc1cccc2c(C(=O)N[C@H]3CCN(c4ccc(C)cc4)C3)c[nH]c12
pIC50 [3]: < 4.30

Cc1cc(Cl)ccc1NCc1ccc(CN(C=O)C(C(=O)NC(C)(C)C)c2c(C(=O)O)[nH]c3cc(Cl)ccc23)cc1 (stereo unspecified)
pKi [4]: 5.43

C[C@@H](c1cccc(Cl)c1)n1cnc(-c2ccccc2)c1-c1c(C(=O)Nc2cc(C(=O)O)ccc2N2CCC(N3CCCOC3=O)CC2)[nH]c2cc(Cl)ccc12
pIC50 [5]: 7.77

CC(C)(C)Oc1cc(C(=O)CC(N)=O)ccc1C1=N[C@@H](c2ccc(C(=O)O)cc2)[C@@H](c2c[nH]c3ccccc23)N1C(=O)N1CCNC(=O)C1
pKd [6]: 7.57

CC(=O)N[C@@H](CC(C)C)C(=O)N[C@H](C(=O)N[C@@H](Cc1ccccc1)C(=O)N[C@]1(C)CCCCCC/C=C/CCC[C@@](C)(C(=O)N[C@@H](C)C(=O)N[C@@H](C)C(=O)N[C@@H](C)C(=O)N[C@@H](C)C(=O)N[C@H](C)C(N)=O)NC(=O)[C@H](CC(C)C)NC(=O)[C@H](CCC(N)=O)NC(=O)[C@H](C)NC(=O)[C@H](Cc2c[nH]c3ccccc23)NC(=O)[C@H](Cc2ccc(O)cc2)NC(=O)[C@H](C)NC1=O)[C@@H](C)O
inhibition in vivo at 30 mg/kg [7]: 61%

COOc1cc(/C=C2\C(=O)N(c3ccccc3)N=C2C)cc(Cl)c1OCC(=O)OC
pEC50 [8]: 4.59
pEC50 [9]: 5.64

COc1ncc(-c2nc3c(n2C(C)C)[C@H](c2ccc(C#N)cc2)N([C@@H](C)c2cccc(Cl)c2)C3=O)c(OC)n1
pIC50 [1]: 6.24

C[C@@H](c1cccc(Cl)c1)n1cnc(-c2ccccc2)c1-c1c(C(=O)NCCN2CCN(C3CCCCC3)CC2)[nH]c2cc(Cl)ccc12
pIC50 [5]: 6.84

O=C(CN(Cc1ccc(Cl)cc1)C(=O)c1cc2ccccc2[nH]1)NC1CCCCC1
pKi [10]: 5.26

CC(C)C[C@H](NC(=O)[C@H](CS)NC(=O)[C@H](CCCNC(=N)N)NC(=O)[C@H](Cc1c[nH]c2ccccc12)NC(=O)[C@H](Cc1ccc(O)cc1)NC(=O)[C@H](CS)NC(=O)[C@H](CC(C)C)NC(=O)[C@H](Cc1ccccc1)NC(=O)[C@@H](NC(=O)[C@H](CCC(=O)O)NC(=O)[C@@H]1CCCN1C(=O)[C@H](C)NC(=O)[C@H](CCCCN)NC(=O)[C@H](CS)NC(=O)[C@H](CC(N)=O)NC(=O)[C@@H](N)CS)[C@@H](C)O)C(=O)N[C@@H](CCC(N)=O)C(=O)N[C@@H](Cc1c[nH]cn1)C(N)=O (H-CNCKAPETFLCYWRCLQH-NH2)
pIC50 [11]: 7.94

COc1cc(C(=O)O)ccc1NC(=O)[C@@H]1N[C@@H](CC(C)(C)C)[C@](C#N)(c2ccc(Cl)cc2F)[C@H]1c1cccc(Cl)c1F [IDASANUTLIN]
pKd [12]: > 7.00

CCOc1cc(C(C)(C)C)ccc1C1=N[C@@](C)(c2ccc(Cl)cc2)[C@@](C)(c2ccc(Cl)cc2)N1C(=O)N1CCN(CCCS(C)(=O)=O)CC1 [RO-5045337]
inhibition in vivo [13]: 61%

H-ETFEHWWSQLLS-OH
pIC50 [14]: 6.96
